Test results: ChEMBL document CHEMBL1817579, “Activation and inhibition of CTP synthase from Trypanosoma brucei, the causative agent of African sleeping sickness” (Bioorg Med Chem Lett, 2011)
Blank lines part the entries; values can stand above or below the molecule they belong to. The source made the active and inactive calls. No cut-off for these calls is given here.

How the values were obtained:
Escherichia coli [1] = assay: Activation of Escherichia coli CTPS assessed as Gln-dependent CTP formation at < 0.15 mM by continuous spectrophotometric assay
Escherichia coli [2] = assay: Inhibition of Escherichia coli CTPS assessed as Gln-dependent CTP formation at > 0.15 mM by continuous spectrophotometric assay
Trypanosoma brucei [3] = assay: Activation of N-terminal His6-tagged Trypanosoma brucei CTPS assessed as Gln-dependent CTP formation by continuous spectrophotometric assay
Trypanosoma brucei [4] = assay: Inhibition of N-terminal His6-tagged Trypanosoma brucei CTPS assessed as Gln-dependent CTP formation at by continuous spectrophotometric assay
[5] = Inhibition of N-terminal His6-tagged Trypanosoma brucei CTPS assessed as NH3-dependent CTP formation by continuous spectrophotometric assay
Trypanosoma brucei [6] = assay: Activation of N-terminal His6-tagged Trypanosoma brucei CTPS assessed as Gln-dependent CTP formation at <0.2 mM by continuous spectrophotometric assay
Trypanosoma brucei [7] = assay: Inhibition of N-terminal His6-tagged Trypanosoma brucei CTPS assessed as Gln-dependent CTP formation at > 0.2 mM by continuous spectrophotometric assay
[8] = Activity of Escherichia coli CTPS assessed as conversion of UTP to CTP at pH 7.3 by continuous spectrophotometric assay
[9] = Activity of N-terminal His6-tagged Trypanosoma brucei CTPS assessed as conversion of UTP to CTP at pH 7.3 by continuous spectrophotometric assay
Trypanosoma brucei [10] = details: 5.67 mM
Description: Inhibition of N-terminal His6-tagged Trypanosoma brucei CTPS assessed as conversion of UTP to CTP at 5.67 mM by continuous spectrophotometric assay

Trypanosoma brucei [11] = details: 494.32 mM
Description: Inhibition of N-terminal His6-tagged Trypanosoma brucei CTPS assessed as conversion of UTP to CTP at 494.32 mM at pH 7.3 by continuous spectrophotometric assay

Escherichia coli [12] = test system: Escherichia coli
Trypanosoma brucei [13] = test system: Trypanosoma brucei
Description: Ratio of Kcat to Km for N-terminal His6-tagged Trypanosoma brucei CTPS assessed as conversion of UTP to CTP by continuous spectrophotometric assay

Escherichia coli [14] = test system: Escherichia coli; remark: listed apart in the source
Description: Ratio of Kcat to Km for Escherichia coli CTPS assessed as conversion of UTP to CTP by continuous spectrophotometric assay

Trypanosoma brucei [15] = test system: Trypanosoma brucei; remark: listed apart in the source

kcat (Escherichia coli [1]): 10.6 s⁻¹
inhibition (Escherichia coli [2]): Active
KA (Trypanosoma brucei [3]): 57 µM
Kact (Trypanosoma brucei [3]): 0.87 s⁻¹
inhibition (Trypanosoma brucei [4]): Active
Ki [5]: 272 µM
Activity (Trypanosoma brucei [6]): Active
inhibition (Trypanosoma brucei [7]): Active
SMILES: Nc1nc(=O)c2ncn([C@@H]3O[C@H](COP(=O)(O)OP(=O)(O)OP(=O)(O)O)[C@@H](O)C3O)c2[nH]1 (single isomer, unassigned) [GTP]
IC50 [5]: 460 µM

Ki [8]: 1400 µM
Ki [9]: 5700 µM
inhibition (Trypanosoma brucei [10]): Active
inhibition (Trypanosoma brucei [11]): Active
Ks (Escherichia coli [12]): 1.1 mM
kcat (Escherichia coli [12]): 4.4 s⁻¹
kcat/Km (Trypanosoma brucei [13]): 727 M⁻¹ s⁻¹
kcat/Km (Escherichia coli [14]): 4 ×10³ /M/s
Ks (Trypanosoma brucei [15]): 2.2 mM
kcat (Trypanosoma brucei [15]): 1.6 s⁻¹
SMILES: N [AMMONIA SOLUTION, STRONG]

SMILES: Cn1c(=O)c2c(ncn2C)n(C)c1=O [CAFFEINE]
IC50 [5]: 480 µM

SMILES: Nc1nc2c(ncn2[C@@H]2O[C@H](CO)[C@@H](O)[C@H]2O)c(=O)[nH]1 [GUANOSINE]
IC50 [5]: 380 µM

SMILES: Oc1nc(O)c2nc(O)[nH]c2n1 [URIC ACID]
IC50 [5]: 100 µM
